Results published in publication PMC5474674, “D-BMAP18 Antimicrobial Peptide Is Active In vitro, Resists to Pulmonary Proteases but Loses Its Activity in a Murine Model of Pseudomonas aeruginosa Lung Infection” (Frontiers in Chemistry, 2017).
Where a SMILES comes first, the peptide text is derived from it.

What was measured:
[1] = cited from earlier work
Description: D-BMAP18 was synthesized to provide a molecule more resistant to enzymatic cleavage. The stability of D-BMAP18 was tested in murine BAL fluid.

P. aeruginosa RP73 = type: in vivo, mouse; settings: 10 mg/kg intratracheal, day 1
Description: C57/Bl6NCrl mice (n = 8/group) were intratracheally challenged with 1 × 10^7 cells P. aeruginosa RP73 clinical strain, and 5 min later a single dose of D-BMAP18 at different concentrations (0.5, 1, and 2 mg/kg) was intratracheally administrated. Sterile distilled water alone or tobramycin [10 mg/kg] (Sigma-Aldrich S.r.l.), were used respectively as negative and positive control. […] Subsequently, lungs were homogenized (24,000 rpm) on ice in 1 ml of sterile PBS by using Ultra-Turrax T25-Basic homogenizer (IKA-Werke GmbH & Co. KG, Germany). Ten-fold serial dilutions of lung homogenates were plated on MH agar (Oxoid SpA), and the number of colony-forming units (CFU) was counted after incubation at 37°C for 24 h.

Row | Compound | degradation in murine BAL after 10 min [1] | time within which peptide is degraded by pulmonary proteases in murine BAL [1] | effect on bacterial load in murine lungs (P. aeruginosa RP73) | mortality (P. aeruginosa RP73; 1 out of 8 mice)
1 | CC(C)C[C@H](NC(=O)[C@H](CCCCN)NC(=O)[C@H](CCCCN)NC(=O)[C@H](Cc1ccccc1)NC(=O)[C@H](CC(C)C)NC(=O)[C@H](CCCCN)NC(=O)[C@H](CCCCN)NC(=O)[C@H](Cc1ccccc1)NC(=O)[C@H](CCCCN)NC(=O)[C@H](CCCCN)NC(=O)[C@H](CCCNC(=N)N)NC(=O)[C@H](Cc1ccccc1)NC(=O)[C@H](CCCNC(=N)N)NC(=O)[C@H](CCCCN)NC(=O)[C@H](Cc1ccccc1)NC(=O)[C@H](CCCNC(=N)N)NC(=O)CN)C(=O)N[C@@H](CO)C(N)=O [L-BMAP18] (H-GRFKRFRKKFKKLFKKLS-NH2) | most of the L-BMAP-18 was digested | ≤ 20 min |  | 
2 | NC[C@H]1O[C@H](O[C@H]2[C@H](O)[C@@H](O[C@H]3O[C@H](CO)[C@@H](O)[C@H](N)[C@H]3O)[C@H](N)C[C@@H]2N)[C@H](N)C[C@@H]1O [tobramycin] |  |  | weak effect | 12.5%
